Assay results from US10640506B2, “Cyclobutyl substituted pyrrolopyridine and pyrrolopyrimidines derivatives as JAK inhibitors” (Incyte Corporation, priority 2010, dated 2020).
Read-outs that look alike come from different tables or passages of the source.

Assays:
[1] = biological target: human JAK1 (a.a. 837-1142) (Homo sapiens, UniProt P23458); test: In vitro JAK kinase assay (HTRF, phosphorylation of biotinylated peptide), JAK1; format: biochemical
How it was run: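 Phosphorylation of a biotinylated peptide was run at room temperature for 1 hour using the N-terminally His-tagged JAK1 kinase domain (837-1142) from insect cells. After an EDTA stop, Eu-Py20 and SA-APC gave an HTRF read; values are binned potency ranges.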

JAK2 (a.a. 828-1132) = biological target: T1, JAK2 (a.a. 828-1132) (Homo sapiens, UniProt O60674); test: In vitro JAK kinase assay (HTRF, phosphorylation of biotinylated peptide), JAK2; format: biochemical
T1 construct: JAK2 (a.a. 828-1132); His tag (N)
T1 sequence (O60674 828-1132): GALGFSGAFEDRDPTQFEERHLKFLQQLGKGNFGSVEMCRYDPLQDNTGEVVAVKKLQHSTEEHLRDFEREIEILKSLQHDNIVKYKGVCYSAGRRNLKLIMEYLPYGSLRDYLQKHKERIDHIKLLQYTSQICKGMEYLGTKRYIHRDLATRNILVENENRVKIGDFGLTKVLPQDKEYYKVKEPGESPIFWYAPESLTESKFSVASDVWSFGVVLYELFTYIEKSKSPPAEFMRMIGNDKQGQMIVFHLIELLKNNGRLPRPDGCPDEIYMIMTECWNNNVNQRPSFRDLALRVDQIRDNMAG
How it was run: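 HTRF detection (Eu-Py20, SA-APC, 40 min) of biotinylated-peptide phosphorylation, following a 1 hour room-temperature reaction quenched with 45 mM EDTA. Enzymes: insect-cell-expressed N-terminal His-tagged JAK1 (837-1142) and JAK2 (828-1132) catalytic domains. Activities reported in ranged categories.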

[2] = Table A, 1 mM ATP, read-out: JAK1 IC50
[3] = Table A, 1 mM ATP, read-out: JAK2 IC50

Chain of human JAK1 (a.a. 837-1142) (P23458 849-1154): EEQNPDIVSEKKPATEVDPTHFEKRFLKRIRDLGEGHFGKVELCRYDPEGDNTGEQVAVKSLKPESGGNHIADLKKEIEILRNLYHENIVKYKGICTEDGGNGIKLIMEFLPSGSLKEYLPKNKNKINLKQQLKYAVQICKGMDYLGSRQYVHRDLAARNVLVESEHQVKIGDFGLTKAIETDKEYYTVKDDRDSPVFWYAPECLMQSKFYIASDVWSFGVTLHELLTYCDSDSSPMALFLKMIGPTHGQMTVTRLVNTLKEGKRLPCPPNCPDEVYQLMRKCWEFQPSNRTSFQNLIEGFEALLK

| IC50 ([1]; Table F, 1 mM ATP) [nM] | IC50 (JAK2 (a.a. 828-1132); Table F, 1 mM ATP) [nM] | Molecule | also measured |
| --- | --- | --- | --- |
| < 10 | 25 to 100 | N#CC[C@]1(n2cc(-c3ncnc4[nH]ccc34)cn2)C[C@H](N2CCC(Oc3cc(CN4CC(O)C4)cc(C(F)(F)F)n3)CC2)C1 [Example 157, {trans-3-(4-{[4-[(3-hydroxyazetidin-1-yl)methyl]-6-(trifluoromethyl)pyridin-2-yl]oxy}piperidin-1-yl)-1-[4-(7H-pyrrolo[2,3-d]pyrimidin-4-yl)-1H-pyrazol-1-yl]cyclobutyl}acetonitrile] | – |
| – | – | {cis-3-(4-{[6-(1-hydroxy-1-methylethyl)-2-(trifluoromethyl)pyrimidin-4-yl]carbonyl}piperazin-1-yl)-1-[4-(1H-pyrrolo[2,3-b]pyridin-4-yl)-1H-pyrazol-1-yl]cyclobutyl}acetonitrile [Example 77] | IC50 ([1]; read-out: JAK1 IC50 (nM) at 1 mM ATP, Table F): < 10 nM; IC50 (JAK2 (a.a. 828-1132); read-out: JAK2 IC50 (nM) at 1 mM ATP, Table F): 25 to 100 nM |
| < 10 | > 100 | COCc1cc(OC2CCN([C@H]3C[C@](CC#N)(n4cc(-c5ncnc6[nH]ccc56)cn4)C3)CC2)nc(C(F)(F)F)c1 (single isomer, unassigned) [Example 122, {trans-3-(4-{[4-(methoxymethyl)-6-(trifluoromethyl)pyridin-2-yl]oxy}piperidin-1-yl)-1-[4-(7H-pyrrolo[2,3-d]pyrimidin-4-yl)-1H-pyrazol-1-yl]cyclobutyl}acetonitrile] | – |
| < 10 | 25 to 100 | CN(C)Cc1cc(C(=O)N2CCN([C@H]3C[C@](CC#N)(n4cc(-c5ncnc6[nH]ccc56)cn4)C3)CC2)nc(C(F)(F)F)n1 [Example 52, {trans-3-(4-{[6-[(dimethylamino)methyl]-2-(trifluoromethyl)pyrimidin-4-yl]carbonyl}piperazin-1-yl)-1-[4-(7H-pyrrolo[2,3-d]pyrimidin-4-yl)-1H-pyrazol-1-yl]cyclobutyl}acetonitrile] | – |
| 25 to 100 | > 100 | N#CC[C@]1(n2cc(-c3ncnc4[nH]ccc34)cn2)C[C@H](N2CCC(Oc3cc(CN4CCOCC4)nc(C(F)(F)F)n3)CC2)C1 [Example 149, {trans-3-(4-{[6-(morpholin-4-ylmethyl)-2-(trifluoromethyl)pyrimidin-4-yl]oxy}piperidin-1-yl)-1-[4-(7H-pyrrolo[2,3-d]pyrimidin-4-yl)-1H-pyrazol-1-yl]cyclobutyl}acetonitrile] | – |
| – | – | N#CC[C@]1(n2cc(-c3ncnc4[nH]ccc34)cn2)C[C@@H](N2CCN(C(=O)c3cccc(C(F)(F)F)c3F)CC2)C1 [Example 22, {cis-3-{4-[2-fluoro-3-(trifluoromethyl)benzoyl]piperazin-1-yl}-1-[4-(7H-pyrrolo[2,3-d]pyrimidin-4-yl)-1H-pyrazol-1-yl]cyclobutyl}acetonitrile] | IC50 [1, 2]: < 10 nM; IC50 (JAK2 (a.a. 828-1132); [3]): 25 to 100 nM |
| – | – | N#CC[C@]1(n2cc(-c3ncnc4[nH]ccc34)cn2)C[C@H](N2CCN(Cc3c(F)ccc(F)c3Cl)CC2)C1 [Example 16b, {trans-3-[4-(2-chloro-3,6-difluorobenzyl)piperazin-1-yl]-1-[4-(7H-pyrrolo[2,3-d]pyrimidin-4-yl)-1H-pyrazol-1-yl]cyclobutyl}acetonitrile] | IC50 ([1]; Table B, 1 mM ATP, read-out: JAK1 IC50): < 10 nM; IC50 (JAK2 (a.a. 828-1132); Table B, 1 mM ATP, read-out: JAK2 IC50): 25 to 100 nM |
| 10 to 25 | > 100 | CC(C)(O)c1cc(OC2CCN([C@H]3C[C@@](CC#N)(n4cc(-c5ncnc6[nH]ccc56)cn4)C3)CC2)nc(C(F)(F)F)c1 (single isomer, unassigned) [Example 126, {cis-3-(4-{[4-(1-hydroxy-1-methylethyl)-6-(trifluoromethyl)pyridin-2-yl]oxy}piperidin-1-yl)-1-[4-(7H-pyrrolo[2,3-d]pyrimidin-4-yl)-1H-pyrazol-1-yl]cyclobutyl}acetonitrile] | – |
| – | – | N#CC[C@]1(n2cc(-c3ncnc4[nH]ccc34)cn2)C[C@@H](N2CCN(C(=O)c3nc(C(F)(F)F)cs3)CC2)C1 [Example 13a, [cis-1-[4-(7H-pyrrolo[2,3-d]pyrimidin-4-yl)-1H-pyrazol-1-yl]-3-(4-{[4-(trifluoromethyl)-1,3-thiazol-2-yl]carbonyl}piperazin-1-yl)cyclobutyl]acetonitrile] | IC50 [1, 2]: < 10 nM; IC50 (JAK2 (a.a. 828-1132); [3]): 25 to 100 nM |
